Here are results for five compounds from ChEMBL document CHEMBL4368865, “Synthesis, characterization and cytotoxic activity evaluation of ginsengdiol oxidation and nitrogen hybrid derivatives” (Medchemcomm, 2018).

One assay concerns U-87 MG. As to the kind of experiment: Cytotoxicity against human U87 cells assessed as inhibition of cell proliferation after 48 hrs by MTT assay. In kind it is functional, cell-based, U-87MG ATCC.
Settings: not given
Turning to `CC1(C)CCC[C@](C)([C@H]2CC[C@]3(C)[C@@H]2[C@H](O)C[C@@H]2[C@@]4(C)Cc5cn[nH]c5C(C)(C)[C@@H]4CC[C@]23C)O1`, the IC50 – broadly, the concentration that inhibits the measured activity by half – was 26.2 µM.

For the compound `CC(C)(O)CCC[C@@](C)(O)[C@H]1CC[C@]2(C)[C@@H]1[C@H](O)C[C@@H]1[C@@]3(C)CCC(=O)C(C)(C)[C@@H]3CC[C@]12C`, the IC50 is greater than 100 µM.

With `CC(C)(O)CCC[C@@](C)(O)[C@H]1CC[C@]2(C)[C@@H]1[C@H](O)C[C@@H]1[C@@]3(C)Cc4nccnc4C(C)(C)[C@@H]3CC[C@]12C`, the IC50 came to 38.1 µM.

Regarding `CC1(C)CCC[C@](C)([C@H]2CC[C@]3(C)[C@@H]2[C@H](O)C[C@@H]2[C@@]4(C)CC[C@H](O)C(C)(C)[C@@H]4CC[C@]23C)O1` [PANAXADIOL], the IC50 was greater than 100 µM.

For the compound `CC1(C)CCC[C@](C)([C@H]2CC[C@]3(C)[C@@H]2[C@H](O)C[C@@H]2[C@@]4(C)Cc5cnoc5C(C)(C)[C@@H]4CC[C@]23C)O1`, the IC50 was greater than 100 µM.

For the next assay, the system named is MCF7. Briefly: cells. In kind it is functional, cell-based. To be noted: Homo sapiens, MCF7, 48 h.
Description: Cytotoxicity against human MCF7 cells assessed as inhibition of cell proliferation after 48 hrs by MTT assay
Turning to `CC1(C)CCC[C@](C)([C@H]2CC[C@]3(C)[C@@H]2[C@H](O)C[C@@H]2[C@@]4(C)Cc5cn[nH]c5C(C)(C)[C@@H]4CC[C@]23C)O1`, it took 18.9 µM to reach half-maximal inhibition (IC50).

`CC(C)(O)CCC[C@@](C)(O)[C@H]1CC[C@]2(C)[C@@H]1[C@H](O)C[C@@H]1[C@@]3(C)CCC(=O)C(C)(C)[C@@H]3CC[C@]12C` displayed a half-maximal inhibitory concentration (IC50) of 66.6 µM.

As for `CC(C)(O)CCC[C@@](C)(O)[C@H]1CC[C@]2(C)[C@@H]1[C@H](O)C[C@@H]1[C@@]3(C)Cc4nccnc4C(C)(C)[C@@H]3CC[C@]12C`, half-maximal inhibition (IC50) was put at 17.7 µM.

For the compound `CC1(C)CCC[C@](C)([C@H]2CC[C@]3(C)[C@@H]2[C@H](O)C[C@@H]2[C@@]4(C)CC[C@H](O)C(C)(C)[C@@H]4CC[C@]23C)O1` [PANAXADIOL], the IC50 is 52.6 µM.

In turn, `CC1(C)CCC[C@](C)([C@H]2CC[C@]3(C)[C@@H]2[C@H](O)C[C@@H]2[C@@]4(C)Cc5cnoc5C(C)(C)[C@@H]4CC[C@]23C)O1` returned an IC50 greater than 100 µM.

Tested on in another assay: not listed separately
As to the kind of experiment: Cytotoxicity against human 8901 cells assessed as inhibition of cell proliferation after 48 hrs by MTT assay. Format: functional, cell-based.
Settings: not given
(In general: Tetrazolium dyes change colour on reduction, which living cells bring about.)
As for `CC1(C)CCC[C@](C)([C@H]2CC[C@]3(C)[C@@H]2[C@H](O)C[C@@H]2[C@@]4(C)Cc5cn[nH]c5C(C)(C)[C@@H]4CC[C@]23C)O1`, the IC50 was determined as 13.5 µM.

As for `CC(C)(O)CCC[C@@](C)(O)[C@H]1CC[C@]2(C)[C@@H]1[C@H](O)C[C@@H]1[C@@]3(C)CCC(=O)C(C)(C)[C@@H]3CC[C@]12C`, the IC50 was greater than 100 µM.

In the case of `CC(C)(O)CCC[C@@](C)(O)[C@H]1CC[C@]2(C)[C@@H]1[C@H](O)C[C@@H]1[C@@]3(C)Cc4nccnc4C(C)(C)[C@@H]3CC[C@]12C`, the IC50 is 13.2 µM.

`CC1(C)CCC[C@](C)([C@H]2CC[C@]3(C)[C@@H]2[C@H](O)C[C@@H]2[C@@]4(C)CC[C@H](O)C(C)(C)[C@@H]4CC[C@]23C)O1` [PANAXADIOL]: the IC50 was greater than 100 µM.

With `CC1(C)CCC[C@](C)([C@H]2CC[C@]3(C)[C@@H]2[C@H](O)C[C@@H]2[C@@]4(C)Cc5cnoc5C(C)(C)[C@@H]4CC[C@]23C)O1`, the IC50 is greater than 100 µM.

A further assay has as its system A549. As to the kind of experiment: Cytotoxicity against human A549 cells assessed as inhibition of cell proliferation after 48 hrs by MTT assay. Format: functional, cell-based. The settings on record: A549, 48 h.
Turning to `CC1(C)CCC[C@](C)([C@H]2CC[C@]3(C)[C@@H]2[C@H](O)C[C@@H]2[C@@]4(C)Cc5cn[nH]c5C(C)(C)[C@@H]4CC[C@]23C)O1`, the IC50 was 9.62 µM.

On to `CC(C)(O)CCC[C@@](C)(O)[C@H]1CC[C@]2(C)[C@@H]1[C@H](O)C[C@@H]1[C@@]3(C)CCC(=O)C(C)(C)[C@@H]3CC[C@]12C`, for which the IC50 stood at 25.7 µM.

For the compound `CC(C)(O)CCC[C@@](C)(O)[C@H]1CC[C@]2(C)[C@@H]1[C@H](O)C[C@@H]1[C@@]3(C)Cc4nccnc4C(C)(C)[C@@H]3CC[C@]12C`, the IC50 was determined as 8.93 µM.

As to `CC1(C)CCC[C@](C)([C@H]2CC[C@]3(C)[C@@H]2[C@H](O)C[C@@H]2[C@@]4(C)CC[C@H](O)C(C)(C)[C@@H]4CC[C@]23C)O1` [PANAXADIOL], the IC50 came to 44.6 µM.

For `CC1(C)CCC[C@](C)([C@H]2CC[C@]3(C)[C@@H]2[C@H](O)C[C@@H]2[C@@]4(C)Cc5cnoc5C(C)(C)[C@@H]4CC[C@]23C)O1`, the IC50 is 67.3 µM.

The subject of the next assay is HeLa. As to the kind of experiment: Cytotoxicity against human HeLa cells assessed as inhibition of cell proliferation after 48 hrs by MTT assay.
Settings: not given
Format: functional, cell-based.
With `CC1(C)CCC[C@](C)([C@H]2CC[C@]3(C)[C@@H]2[C@H](O)C[C@@H]2[C@@]4(C)Cc5cn[nH]c5C(C)(C)[C@@H]4CC[C@]23C)O1`, the IC50 came to 11.7 µM.

On to `CC(C)(O)CCC[C@@](C)(O)[C@H]1CC[C@]2(C)[C@@H]1[C@H](O)C[C@@H]1[C@@]3(C)CCC(=O)C(C)(C)[C@@H]3CC[C@]12C`, for which the IC50 was greater than 100 µM.

As for `CC(C)(O)CCC[C@@](C)(O)[C@H]1CC[C@]2(C)[C@@H]1[C@H](O)C[C@@H]1[C@@]3(C)Cc4nccnc4C(C)(C)[C@@H]3CC[C@]12C`, the IC50 is greater than 100 µM.

As for `CC1(C)CCC[C@](C)([C@H]2CC[C@]3(C)[C@@H]2[C@H](O)C[C@@H]2[C@@]4(C)CC[C@H](O)C(C)(C)[C@@H]4CC[C@]23C)O1` [PANAXADIOL], the IC50 is greater than 100 µM.

Consider `CC1(C)CCC[C@](C)([C@H]2CC[C@]3(C)[C@@H]2[C@H](O)C[C@@H]2[C@@]4(C)Cc5cnoc5C(C)(C)[C@@H]4CC[C@]23C)O1`, for which the half-inhibitory concentration (IC50) is greater than 100 µM.

Tested on in a further assay: not listed separately
As to the kind of experiment: Cytotoxicity against human IOSE-144 cells assessed as inhibition of cell proliferation after 48 hrs by MTT assay. In kind it is cell-based. To be noted: IOSE-144, 48 h.
In the case of `CC1(C)CCC[C@](C)([C@H]2CC[C@]3(C)[C@@H]2[C@H](O)C[C@@H]2[C@@]4(C)Cc5cn[nH]c5C(C)(C)[C@@H]4CC[C@]23C)O1`, the IC50 is greater than 100 µM.

Turning to `CC(C)(O)CCC[C@@](C)(O)[C@H]1CC[C@]2(C)[C@@H]1[C@H](O)C[C@@H]1[C@@]3(C)CCC(=O)C(C)(C)[C@@H]3CC[C@]12C`, the IC50 was greater than 100 µM.

`CC(C)(O)CCC[C@@](C)(O)[C@H]1CC[C@]2(C)[C@@H]1[C@H](O)C[C@@H]1[C@@]3(C)Cc4nccnc4C(C)(C)[C@@H]3CC[C@]12C`: the 50% inhibitory concentration (IC50) was greater than 100 µM.

Turning to `CC1(C)CCC[C@](C)([C@H]2CC[C@]3(C)[C@@H]2[C@H](O)C[C@@H]2[C@@]4(C)CC[C@H](O)C(C)(C)[C@@H]4CC[C@]23C)O1` [PANAXADIOL], the IC50 is greater than 100 µM.

Consider `CC1(C)CCC[C@](C)([C@H]2CC[C@]3(C)[C@@H]2[C@H](O)C[C@@H]2[C@@]4(C)Cc5cnoc5C(C)(C)[C@@H]4CC[C@]23C)O1`, for which the IC50 was greater than 100 µM.

Another assay deals with A549. Briefly: Potency index, ratio of 5-fluorouracil IC50 to test compound IC50 for human A549 cells. Format: functional.
Settings: not given
Turning to `CC(C)(O)CCC[C@@](C)(O)[C@H]1CC[C@]2(C)[C@@H]1[C@H](O)C[C@@H]1[C@@]3(C)Cc4nccnc4C(C)(C)[C@@H]3CC[C@]12C`, the “Ratio IC50” value is 2.6.

The subject of a further assay is HeLa. As to the kind of experiment: Potency index, ratio of 5-fluorouracil IC50 to test compound IC50 for human HeLa cells. Format: functional.
Settings: not given
For the compound `CC1(C)CCC[C@](C)([C@H]2CC[C@]3(C)[C@@H]2[C@H](O)C[C@@H]2[C@@]4(C)Cc5cn[nH]c5C(C)(C)[C@@H]4CC[C@]23C)O1`, the “Ratio IC50” value was determined as 2.5.
